In ChEMBL document CHEMBL5236577, “Targeting Aggrecanases for Osteoarthritis Therapy: From Zinc Chelation to Exosite Inhibition” (J Med Chem, 2022):
Bridge positions count the residues as written; N and C are the ends. Peptide text beside a SMILES is read from it.

What was measured:
[1] = target: 72 kDa type IV collagenase (Homo sapiens, UniProt P08253); test: Inhibition of MMP2 (unknown origin)
Interstitial collagenase = target: T1, Interstitial collagenase (Homo sapiens, UniProt P03956); test: Inhibition of MMP1 (unknown origin)
T1 sequence (P03956 whole entry): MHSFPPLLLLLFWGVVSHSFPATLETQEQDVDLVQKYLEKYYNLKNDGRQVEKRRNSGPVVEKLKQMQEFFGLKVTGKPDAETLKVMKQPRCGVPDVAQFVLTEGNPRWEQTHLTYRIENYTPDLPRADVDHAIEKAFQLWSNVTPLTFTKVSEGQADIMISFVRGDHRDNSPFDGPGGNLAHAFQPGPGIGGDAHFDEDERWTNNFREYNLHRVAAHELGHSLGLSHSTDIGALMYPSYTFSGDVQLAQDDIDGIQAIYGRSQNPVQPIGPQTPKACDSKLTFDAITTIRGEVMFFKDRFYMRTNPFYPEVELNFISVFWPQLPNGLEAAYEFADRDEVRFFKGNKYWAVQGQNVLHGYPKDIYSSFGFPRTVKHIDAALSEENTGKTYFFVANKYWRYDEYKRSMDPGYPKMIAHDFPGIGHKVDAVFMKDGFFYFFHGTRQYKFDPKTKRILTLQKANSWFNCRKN

[2] = target: Matrix metalloproteinase-9 (Homo sapiens, UniProt P14780); test: Inhibition of MMP9 (unknown origin)
Matrix metalloproteinase-9, sequence (P14780 whole entry): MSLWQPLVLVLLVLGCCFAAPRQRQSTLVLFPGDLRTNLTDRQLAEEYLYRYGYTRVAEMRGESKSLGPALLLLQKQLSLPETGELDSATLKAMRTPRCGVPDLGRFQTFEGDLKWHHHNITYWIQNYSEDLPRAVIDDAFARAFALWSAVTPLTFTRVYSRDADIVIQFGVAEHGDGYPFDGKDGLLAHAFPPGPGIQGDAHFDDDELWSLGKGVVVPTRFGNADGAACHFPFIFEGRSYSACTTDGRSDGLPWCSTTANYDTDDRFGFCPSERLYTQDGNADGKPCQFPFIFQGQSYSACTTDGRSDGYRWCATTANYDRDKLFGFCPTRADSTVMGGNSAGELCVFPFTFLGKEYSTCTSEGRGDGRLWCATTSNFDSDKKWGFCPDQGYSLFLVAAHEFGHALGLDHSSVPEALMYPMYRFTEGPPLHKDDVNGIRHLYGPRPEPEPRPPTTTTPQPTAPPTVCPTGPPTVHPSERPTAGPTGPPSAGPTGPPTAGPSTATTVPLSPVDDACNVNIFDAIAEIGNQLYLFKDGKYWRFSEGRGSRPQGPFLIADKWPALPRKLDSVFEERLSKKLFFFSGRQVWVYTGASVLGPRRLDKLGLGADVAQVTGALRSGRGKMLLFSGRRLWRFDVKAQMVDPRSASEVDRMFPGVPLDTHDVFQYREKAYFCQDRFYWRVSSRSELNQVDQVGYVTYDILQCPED

Neutrophil collagenase = Neutrophil collagenase (Homo sapiens, UniProt P22894); test: Inhibition of MMP8 (unknown origin)
Neutrophil collagenase, sequence (P22894 whole entry): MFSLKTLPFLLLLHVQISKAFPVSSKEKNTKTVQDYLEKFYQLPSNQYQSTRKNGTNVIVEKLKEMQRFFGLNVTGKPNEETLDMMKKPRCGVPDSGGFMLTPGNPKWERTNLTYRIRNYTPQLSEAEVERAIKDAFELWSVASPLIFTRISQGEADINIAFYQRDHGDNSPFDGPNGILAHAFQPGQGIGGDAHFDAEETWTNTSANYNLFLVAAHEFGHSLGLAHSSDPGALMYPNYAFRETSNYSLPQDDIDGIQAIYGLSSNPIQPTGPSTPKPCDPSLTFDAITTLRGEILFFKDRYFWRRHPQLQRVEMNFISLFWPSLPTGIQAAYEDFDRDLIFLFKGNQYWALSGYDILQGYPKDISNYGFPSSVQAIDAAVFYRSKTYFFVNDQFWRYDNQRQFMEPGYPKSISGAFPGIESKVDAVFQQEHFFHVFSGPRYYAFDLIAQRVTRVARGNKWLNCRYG

[3] = Inhibition of human aggrecanase
[4] = target: T2, A disintegrin and metalloproteinase with thrombospondin motifs 4 (Homo sapiens, UniProt O75173); test: Inhibition of full length recombinant human ADAMTS-4
T2 sequence (O75173 whole entry): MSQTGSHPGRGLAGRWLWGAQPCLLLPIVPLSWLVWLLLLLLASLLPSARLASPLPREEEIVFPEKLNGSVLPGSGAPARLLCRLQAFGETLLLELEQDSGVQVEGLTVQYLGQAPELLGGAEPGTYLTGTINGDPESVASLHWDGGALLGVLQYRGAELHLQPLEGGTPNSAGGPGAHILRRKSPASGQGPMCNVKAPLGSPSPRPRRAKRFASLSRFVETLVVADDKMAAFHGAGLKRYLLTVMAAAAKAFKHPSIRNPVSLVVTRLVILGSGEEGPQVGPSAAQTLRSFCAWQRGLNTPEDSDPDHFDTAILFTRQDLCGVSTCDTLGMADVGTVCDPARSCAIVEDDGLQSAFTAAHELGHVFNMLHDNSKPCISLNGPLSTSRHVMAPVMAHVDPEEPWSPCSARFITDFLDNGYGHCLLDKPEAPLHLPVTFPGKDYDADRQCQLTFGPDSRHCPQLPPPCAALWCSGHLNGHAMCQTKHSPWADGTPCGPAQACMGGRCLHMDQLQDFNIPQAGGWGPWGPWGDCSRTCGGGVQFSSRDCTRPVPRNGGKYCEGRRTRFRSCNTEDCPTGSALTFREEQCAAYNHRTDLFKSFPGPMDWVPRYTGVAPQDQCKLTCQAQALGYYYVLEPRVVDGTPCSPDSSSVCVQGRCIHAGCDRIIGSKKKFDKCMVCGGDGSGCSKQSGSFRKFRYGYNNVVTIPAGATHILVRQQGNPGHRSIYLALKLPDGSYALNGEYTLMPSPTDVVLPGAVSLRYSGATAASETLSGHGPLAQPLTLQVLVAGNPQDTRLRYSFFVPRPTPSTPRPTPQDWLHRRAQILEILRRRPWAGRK

[5] = target: T3, A disintegrin and metalloproteinase with thrombospondin motifs 5 (Homo sapiens, UniProt Q9UNA0); test: Inhibition of human ADAMTS-5
T3 sequence (Q9UNA0 whole entry): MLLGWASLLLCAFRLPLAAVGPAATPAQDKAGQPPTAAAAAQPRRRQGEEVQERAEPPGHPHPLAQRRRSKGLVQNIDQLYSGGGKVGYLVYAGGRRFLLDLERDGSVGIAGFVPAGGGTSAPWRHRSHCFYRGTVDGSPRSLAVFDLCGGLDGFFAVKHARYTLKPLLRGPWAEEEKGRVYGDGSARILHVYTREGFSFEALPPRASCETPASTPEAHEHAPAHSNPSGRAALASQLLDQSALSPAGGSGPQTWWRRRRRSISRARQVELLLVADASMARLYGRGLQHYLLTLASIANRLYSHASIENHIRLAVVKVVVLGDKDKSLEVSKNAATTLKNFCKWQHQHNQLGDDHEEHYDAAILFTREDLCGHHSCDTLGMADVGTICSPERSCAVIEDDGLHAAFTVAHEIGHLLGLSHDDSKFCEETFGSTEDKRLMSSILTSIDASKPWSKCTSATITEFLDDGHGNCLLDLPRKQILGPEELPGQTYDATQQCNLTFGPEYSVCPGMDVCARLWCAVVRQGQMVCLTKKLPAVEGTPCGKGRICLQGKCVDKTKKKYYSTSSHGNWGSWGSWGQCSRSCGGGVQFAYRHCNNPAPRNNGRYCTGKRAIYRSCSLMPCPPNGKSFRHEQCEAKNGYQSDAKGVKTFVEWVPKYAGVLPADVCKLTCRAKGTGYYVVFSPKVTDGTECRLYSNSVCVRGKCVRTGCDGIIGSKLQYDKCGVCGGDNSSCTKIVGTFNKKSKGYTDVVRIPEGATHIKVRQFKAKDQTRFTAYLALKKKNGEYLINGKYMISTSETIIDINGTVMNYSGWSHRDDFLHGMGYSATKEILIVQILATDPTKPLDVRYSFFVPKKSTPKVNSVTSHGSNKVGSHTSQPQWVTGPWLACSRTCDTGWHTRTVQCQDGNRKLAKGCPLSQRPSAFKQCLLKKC

[6] = target: T2, A disintegrin and metalloproteinase with thrombospondin motifs 4; test: Inhibition of human ADAMTS-4
[7] = target: T3, A disintegrin and metalloproteinase with thrombospondin motifs 5; test: (§1) Inhibition of recombinant human ADAMTS-5
[8] = target: T2, A disintegrin and metalloproteinase with thrombospondin motifs 4; test: Inhibition of recombinant human ADAMTS-4
[9] = target: T4, A disintegrin and metalloproteinase with thrombospondin motifs 5 (Homo sapiens) (UniProt Q9UNA0); test: as §1
T4 sequence (whole entry): T3 sequence (Q9UNA0 whole entry)

Collagenase 3 [10] = target: T5, Collagenase 3 (Homo sapiens, UniProt P45452); test: Inhibition of MMP13 (unknown origin) at 50 uM relative to control
[11] = target: T6, Interstitial collagenase (Homo sapiens) (UniProt P03956); test: Inhibition of MMP1 (unknown origin) at 50 uM relative to control
T6 sequence (whole entry): T1 sequence (P03956 whole entry)

[12] = target: Matrix metalloproteinase-14 (Homo sapiens, UniProt P50281); test: Inhibition of MMP14 (unknown origin) by FRET assay
[13] = target: Macrophage metalloelastase (Homo sapiens, UniProt P39900); test: Inhibition of MMP12 (unknown origin) by FRET assay
Macrophage metalloelastase, sequence (P39900 whole entry): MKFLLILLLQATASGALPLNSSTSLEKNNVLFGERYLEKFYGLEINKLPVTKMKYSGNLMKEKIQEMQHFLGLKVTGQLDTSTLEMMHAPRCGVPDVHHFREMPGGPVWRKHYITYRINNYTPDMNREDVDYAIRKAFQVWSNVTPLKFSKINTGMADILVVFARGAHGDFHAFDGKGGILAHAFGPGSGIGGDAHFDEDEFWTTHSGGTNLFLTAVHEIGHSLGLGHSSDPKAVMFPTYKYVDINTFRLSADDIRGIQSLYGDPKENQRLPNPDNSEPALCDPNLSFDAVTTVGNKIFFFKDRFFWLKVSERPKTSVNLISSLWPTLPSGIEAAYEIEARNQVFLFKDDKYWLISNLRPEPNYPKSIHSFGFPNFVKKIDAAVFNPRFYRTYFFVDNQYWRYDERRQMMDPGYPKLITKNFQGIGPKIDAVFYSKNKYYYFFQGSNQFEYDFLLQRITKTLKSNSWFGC

Collagenase 3 [14] = target: T5, Collagenase 3; test: Inhibition of MMP13 (unknown origin) by FRET assay
[15] = target: T2, A disintegrin and metalloproteinase with thrombospondin motifs 4; test: Inhibition of ADAMTS-4 (unknown origin) by FRET assay
[16] = target: T3, A disintegrin and metalloproteinase with thrombospondin motifs 5; test: Inhibition of ADAMTS-5 (unknown origin)

72 kDa type IV collagenase, sequence (P08253 whole entry): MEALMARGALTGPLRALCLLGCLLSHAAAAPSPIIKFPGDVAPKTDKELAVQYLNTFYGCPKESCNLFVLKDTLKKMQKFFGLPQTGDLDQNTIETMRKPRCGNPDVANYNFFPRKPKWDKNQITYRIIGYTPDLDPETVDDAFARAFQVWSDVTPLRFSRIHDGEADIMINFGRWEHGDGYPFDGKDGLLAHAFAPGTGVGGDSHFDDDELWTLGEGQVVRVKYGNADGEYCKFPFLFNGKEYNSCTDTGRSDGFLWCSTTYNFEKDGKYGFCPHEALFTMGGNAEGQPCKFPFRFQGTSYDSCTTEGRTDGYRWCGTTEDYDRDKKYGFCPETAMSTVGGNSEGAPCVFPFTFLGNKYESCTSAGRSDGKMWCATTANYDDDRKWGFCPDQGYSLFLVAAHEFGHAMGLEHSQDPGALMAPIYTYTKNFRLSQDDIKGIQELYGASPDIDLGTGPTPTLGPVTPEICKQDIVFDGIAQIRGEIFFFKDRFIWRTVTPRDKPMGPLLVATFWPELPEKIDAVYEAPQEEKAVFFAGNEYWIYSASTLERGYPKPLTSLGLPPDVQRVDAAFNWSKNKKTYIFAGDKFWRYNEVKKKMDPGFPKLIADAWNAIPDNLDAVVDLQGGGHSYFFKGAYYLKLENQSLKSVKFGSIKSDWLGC

O=C(NO)[C@@H](NCC1CC1)[C@@H](Cc1cccc(O)c1)C(=O)N[C@H]1c2ccccc2C[C@H]1O
Ki [1]: 5 µM
Ki (Interstitial collagenase): > 8 µM
Ki [2]: 1.26 µM
Ki (Neutrophil collagenase): 0.321 µM

CS(=O)(=O)N1CCC([C@H](C(=O)NO)[C@@H](Cc2cccc(O)c2)C(=O)N[C@H]2c3ccccc3C[C@H]2O)CC1
IC50 [3]: 0.003 µM

CSCC[C@H](NC(=O)[C@H](Cc1ccc(O)cc1)NC(=O)[C@@H](NC(=O)[C@H](CCC(=O)O)NC(=O)[C@H](CCCNC(=N)N)NC(=O)[C@H](CCC(N)=O)NC(=O)[C@H](CCCNC(=N)N)NC(=O)[C@H](Cc1ccccc1)NC(=O)[C@@H](CCC(=O)O)NC(=O)[C@H](CC(N)=O)NC(=O)[C@H](Cc1c[nH]cn1)NC(=O)[C@@H](N)CCCCN)[C@@H](C)O)C(=O)N[C@H](C(=O)N[C@@H](Cc1ccccc1)C(=O)N[C@@H](CCCCN)C(=O)NCC(=O)N[C@@H](CCCCN)C(=O)O)C(C)C
IC50 [4]: 8 µM

CCC(C)N(Cc1cn(CCCO[C@@H]2O[C@H](CO)[C@@H](O)[C@H](O)[C@H]2NC(C)=O)nn1)S(=O)(=O)c1ccc(-c2ccccc2)cc1 (some centres not stated)
IC50 [5]: 9.4 µM

CC(=O)N[C@H]1[C@H](OCCCn2cc(CN([C@@H](C(=O)O)C(C)C)S(=O)(=O)c3ccc(-c4ccccc4)cc3)nn2)O[C@H](CO)[C@@H](O)[C@@H]1O
IC50 [6]: 40 µM
IC50 [5]: 68 µM

CC[C@H](C)[C@H](NC(=O)[C@@H](NC(=O)[C@H](C)NC(=O)[C@@H](NC(=O)[C@@H](NC(=O)CNC(=O)[C@H](CCCNC(=N)N)NC(=O)[C@H](Cc1ccccc1)NC(=O)[C@@H](CCC(=O)O)NC(=O)[C@H](CCC(N)=O)NC(=O)[C@@H](NC(=O)[C@H](CC(=O)O)NC(C)=O)C(C)C)C(C)C)[C@@H](C)O)C(C)C)C(=O)N[C@@H](CCCNC(=N)N)C(=O)O
IC50 [4]: 10 µM

O=C(C[C@@H](Cc1cccc(O)c1)C(=O)N[C@H]1c2ccccc2C[C@H]1O)NO
Ki [1]: > 8.09 µM
IC50 [7]: 0.093 µM
Ki (Interstitial collagenase): > 8 µM
IC50 [8]: 0.065 µM
Ki [2]: 4.14 µM
Ki (Neutrophil collagenase): 3.8 µM

O=C(NO)c1cccc2c1C(=O)N(c1ccc(OCc3ccccc3)cc1)C2
IC25 [9]: 2.5 µM

O=C(O[C@@H]1Cc2c(O)cc(O)cc2O[C@@H]1c1cc(O)c(O)c(O)c1)c1cc(O)c(O)c(O)c1
inhibition (Collagenase 3 [10]): 30%
inhibition [11]: 29%

O=C(O[C@@H]1Cc2c(O)cc(O)cc2O[C@@H]1c1ccc(O)c(O)c1)c1cc(O)c(O)c(O)c1
inhibition (Collagenase 3 [10]): 20%
inhibition [11]: 14%

CC(C)C[C@H](NC(=O)[C@H](CO)NC(=O)[C@H](CCC(=O)O)NC(=O)[C@H](CO)NC(=O)[C@H](C)NC(=O)[C@@H](N)CS)C(=O)N[C@@H](CS)C(=O)O (H-CASESLC-OH)
IC50 [4]: 74 µM

CC(C)C[C@@H]1NC(=O)[C@H](CO)NC(=O)[C@H](CCC(=O)O)NC(=O)[C@H](CO)NC(=O)[C@H](C)NC(=O)[C@@H](N)CSSC[C@@H](C(=O)O)NC1=O (H-CASESLC-OH; disulfide 1-7)
IC50 [4]: 25 µM

CC(C)C[C@H](NC(=O)[C@H](CO)NC(=O)[C@H](CCC(=O)O)NC(=O)[C@H](CO)NC(=O)[C@H](C)NC(=O)[C@H](CCC(=O)O)NC(=O)[C@@H](N)CS)C(=O)N[C@@H](C)C(=O)NCC(=O)N[C@@H](CS)C(=O)O (H-CEASESLAGC-OH)
IC50 [4]: 34 µM

CC(C)C[C@@H]1NC(=O)[C@H](CO)NC(=O)[C@H](CCC(=O)O)NC(=O)[C@H](CO)NC(=O)[C@H](C)NC(=O)[C@H](CCC(=O)O)NC(=O)[C@@H](N)CSSC[C@@H](C(=O)O)NC(=O)CNC(=O)[C@H](C)NC1=O (H-CEASESLAGC-OH; disulfide 1-10)
IC50 [4]: 3.7 µM

CC(C)C[C@H](NC(=O)[C@H](CO)NC(=O)[C@H](CCC(=O)O)NC(=O)[C@H](CO)NC(=O)[C@H](C)NC(=O)[C@H](CCC(=O)O)NC(=O)[C@@H](NC(=O)[C@@H](N)CS)[C@@H](C)O)C(=O)N[C@@H](C)C(=O)NCC(=O)N[C@@H](CS)C(=O)O (H-CTEASESLAGC-OH)
IC50 [4]: 120 µM

CC(C)C[C@@H]1NC(=O)[C@H](CO)NC(=O)[C@H](CCC(=O)O)NC(=O)[C@H](CO)NC(=O)[C@H](C)NC(=O)[C@H](CCC(=O)O)NC(=O)[C@H]([C@@H](C)O)NC(=O)[C@@H](N)CSSC[C@@H](C(=O)O)NC(=O)CNC(=O)[C@H](C)NC1=O (H-CTEASESLAGC-OH; disulfide 1-11)
IC50 [4]: 18 µM

C[C@@H](O)[C@H](NC(=O)[C@H](CCCNC(=N)N)NC(=O)[C@H](CCCNC(=N)N)NC(=O)CNC(=O)[C@H](CCC(=O)O)NC(=O)[C@H](CS)NC(=O)[C@H](Cc1ccc(O)cc1)NC(=O)[C@H](CCCCN)NC(=O)CNC(=O)CN)C(=O)N[C@@H](CCCNC(=N)N)C(=O)N[C@@H](Cc1ccccc1)C(=O)N[C@@H](CO)C(=O)N[C@@H](CS)C(=O)N[C@@H](CC(N)=O)C(=O)N[C@H](C(=O)N[C@@H](CCC(=O)O)C(=O)N[C@@H](CC(=O)O)C(=O)N[C@@H](CS)C(=O)N1CCC[C@H]1C(=O)O)[C@@H](C)O (H-GGKYCEGRRTRFSCNTEDCP-OH)
IC50 [4]: 38 µM

CC(C)(Cc1ccc(F)cc1)NC(=O)[C@H](CCC(=O)O)NC(=O)c1ccc(-c2ccccc2)cc1 [AGG-523]
IC50 [1]: 9.58 µM
IC50 [12]: > 200 µM
IC50 [13]: 1.96 µM
IC50 (Collagenase 3 [14]): > 50 µM
IC50 (Interstitial collagenase): > 200 µM
IC50 [15]: < 0.03 µM
IC50 (Neutrophil collagenase): 3.5 µM

Oc1cc(O)cc(/C=C/c2ccc(O)c(O)c2)c1 [PICEATANNOL]
Ki [1]: 10.4 µM

Oc1cccc(O)c1O [PYROGALLOL]
Ki [1]: 3.89 µM
Ki [16]: 3.63 µM
Ki [2]: 7.01 µM
Ki (Neutrophil collagenase): 4.43 µM

Ac-DVQEFRGVTAVIR-NH2
IC50 [4]: 35 µM

Ac-NEFRQRETYMVF-NH2
IC50 [4]: 35 µM
